The subject of series [1] is skin. Description: Skin testing for the cause of the allergic reactions. The class given is in vivo, human. Conditions: skin testing in the same volunteer. The source says:
When the use of the cream containing these ingredients was discontinued, the allergic lesions cleared completely without scarring.

For series [2] the following is noted: oral, human; cited from earlier work.
The conditions of series [3]: cited from earlier work.

The values that follow come from US8435547B2, “Cream for stimulating mitochondrial activity in the skin” (priority 2006, dated 2013).

In the case of `CCOC(=O)CC(O)C(=O)OCC` (stereo not shown) [diethyl malate], the “ingredient responsible for the allergic reactions” value in series [1] is reported as “allergic reactions were due to the diethyl malate”.

For vitamin E, the “dose above which toxicity is evident” value in series [2] is “above 1 gm/day”.

In the case of tristeryl glycerol, the solubility in alcohol result in series [3] (alcohol) was “very slightly soluble”. For the same compound, the solubility in water entry in series [3] (water) is recorded as “insoluble”.
